Measurements published in patent US7189518B2, “Soluble CD40L(CD154) as a prognostic marker of atherosclerotic diseases” (The Brigham and Women's Hospital, Inc., priority 2001, dated 2007).

Assays:
Assay type in all cases: cell-based
[1] = test system: human vascular EC, SMC, and MØ; test: Western blot of CD40 and CD40L protein expression in cultured human vascular cells; settings: for Concentration required to reduce CD40/CD40L expression: higher than for cerivastatin
Protocol: Viability of the cultures was determined by trypan blue (Sigma, St. Louis, Mo.) exclusion count as well as an oligonucleosome formation assay (Cell Death Detection ELISA, Boehringer Mannheim, Germany).
Culture lysates (50 μg total protein/lane) and supernatants were separated by SDS-PAGE and blotted to polyvinylidene difluoride membranes (Bio-Rad, Hercules, Calif.) using a semi-dry blotting apparatus (3 mA/cm^2, 30 min; Bio-Rad, Hercules, Calif.). Blots were blocked and primary (mouse-anti-human CD40 or CD40L; both 1:1,000; PharMingen, San Diego, Calif.) antibodies were added in 5% defatted dry milk/PBS/0.1% Tween 20. After 1 h, blots were washed three times (PBS/0.1% Tween 20) and secondary, peroxidase-conjugated, goat-anti-mouse antibody (Jackson Immunoresearch, West Grove, Pa.) was added (1 h). Finally, blots were washed and immunoreactive proteins were visualized using the Western blot chemiluminescence system (NEN™, Boston, Mass.). Data were verified by employing anti-CD40/-CD40L antibodies from Santa Cruz (Santa Cruz, Calif.).

human vascular EC and MØ = test: RT-PCR of CD40 and CD40L mRNA expression in cultured human vascular cells
Protocol: (§1) Human vascular EC and SMC were isolated from saphenous veins and cultured as described previously.^4,26 Mononuclear phagocytes (MØ) were isolated from leukocyte concentrates by density gradient centrifugation employing Lymphocyte Separation Medium (Organon-Teknika, Durham, N.C.) and were cultured (10 days) in RPMI 1640 (BioWhittaker, Walkersville, Md.) containing 2% human serum (Sigma; St. Louis, Mo.).^26 All cell types were cultured 24 h before and during the experiment in media lacking serum. Viability of the cultures was determined by trypan blue (Sigma, St. Louis, Mo.) exclusion count as well as an oligonucleosome formation assay (Cell Death Detection ELISA, Boehringer Mannheim, Germany).
Total RNA isolated from cultured EC, SMC, or MØ employing RNAzol (Tel-Test; Friendswood, Tex.) was assessed for purity and yield spectrophotometrically (2100 Bioanalyzer, Agilent Technologies, Wilmington, Del.) and was reverse-transcribed (2 μg total RNA; 50 min, 42° C.) employing Superscript II Reverse Transcriptase (LifeTechnologies, Carlsbad, Calif.). PCR was performed for 35 cycles at 95° C. (120 sec), 62° C. (120 sec), and 72° C. […] PCR products were analyzed on ethidium bromide-containing 1.3% agarose gels and visualized by UV transillumination. […]

[2] = test system: human vascular EC, as well as MØ; test: Flow cytometry of CD40 and CD40L cell surface expression
Protocol: as §1
Human vascular EC, SMC, or MØ were washed with ice-cold PBS, harvested by trypsinization, and fixed (PBS/4% paraformaldehyde, 15 min). Subsequently, the cells were washed once with PBS/2% BSA before being incubated (1 h, 4° C.) with either buffer alone or FITC-conjugated control IgG, mouse-anti-human CD40, or mouse-anti-human CD40L antibody (1 μg/ml; PharMingen, San Diego, Calif.). Finally, cells were washed with PBS/2% BSA and analyzed in a Becton Dickinson FACSCAN® flow cytometer employing […]® software (Becton Dickinson; San Jose, Calif.). At least 20,000 viable cells per condition were analyzed.

CC(O)(CCO)CC(=O)O (centres unmarked) [Mevalonate]
Effect on the expression of CD40 and CD40L diminished by statins ([1]; protein, Western blot): reversed
Effect on the expression of CD40 and CD40L transcripts diminished by statins (human vascular EC and MØ): reversed

CC(C)c1c(C(=O)Nc2ccccc2)c(-c2ccccc2)c(-c2ccc(F)cc2)n1CC[C@@H](O)C[C@@H](O)CC(=O)O [atorvastatin]
Concentration required to reduce CD40/CD40L expression ([1]; Western blot): 100 nM
Constitutive as well as cytokine-induced expression of CD40 and CD40L protein and transcript ([1]; human vascular EC, SMC, and MØ, summary in the discussion, also covers RT-PCR): significantly diminished
Order of the statins by concentration needed for equal reduction in CD40/CD40L expression [2]: cerivastatin>simvastatin=atorvastatin

COCc1c(C(C)C)nc(C(C)C)c(/C=C/[C@@H](O)C[C@@H](O)CC(=O)O)c1-c1ccc(F)cc1 [cerivastatin]
Concentration at which the constitutive as well as IL-1β/TNFα/IFNγ-induced expression of the receptor (CD40) was diminished ([1]; EC, Western blot): > 2 nM
Concentration for maximal inhibition of CD40 expression ([1]; EC, Western blot): 10 to 50 nM

CCC(C)(C)C(=O)O[C@H]1C[C@@H](C)C=C2C=C[C@H](C)[C@H](CC[C@@H]3C[C@@H](O)CC(=O)O3)[C@H]21 [simvastatin]
Concentration required to reduce CD40/CD40L expression ([1]; Western blot): 100 nM
